Patent publication US20030212107A1, “R-reliprodil for treating glaucoma” (priority 2002, published 2003)
“Also recorded” adds a separate entry of the source.

Tests used:
[1] = cat, in vivo
Protocol: Eliprodil and its enantiomers were evaluated for their potential for prolonging QTc by determining their dose-related effects on cardiac electrical activity. Two different experimental models were utilized for these studies: (1) Action potential duration in piglet Purkinje fibers from the heart and (2) Electrocardiographic parameters in pentobarbital anesthetized cats.
Eliprodil and its two enantiomers were also evaluated for hemodynamic and electrocardiographic parameters in pentobarbital-anesthetized cats. […] Compounds were administered at increasing doses from 0.01 to 3 mg/kg as a five-minute intravenous infusion every 20 minutes.

[2] = tested on: NMDA-induced firing rate of the lateral vestibular nucleus; experiment: NMDA-induced firing rate of the lateral vestibular nucleus in vivo
[3] = tested on: piglet Purkinje fibre; conditions: for Concentration with statistically significant prolongation of APD90: pig
Protocol: Eliprodil and its two enantiomers induced concentration-dependent prolongation of the duration of the action potential of the piglet Purkinje fibre, particularly at the 0.25 Hz frequency. Based on action potential duration at 90% repolarization (APD90), statistically significant prolongation was evident at R(−) eliprodil concentrations of 100 nM and higher, but at S(+) eliprodil concentrations of 30 nM and higher. With high concentrations, APD90 decreased with both compounds.

[4] = tested on: hippocampal slices; experiment: Recovery of synaptic transmission after hypoxia in hippocampal slices in vitro; conditions: for Recovery of excitatory post synaptic potentials following hypoxia (efficacy): comparable dose, 15 minute hypoxia, recovery assessed 60 minutes after reoxygenation
Protocol: Dose-Response Relations Comparing the Efficacy of Racemic (R/S)-Eliprodil (Open Circles), R-Eliprodil (Closed Circles) and Memantine (Closed Diamonds) for their Ability to Improve Recovery of Synaptic Transmission Following a 15 Minute Period of Hypoxia in Hippocampal Slices in vitro (FIG. 2). […] Briefly, hippocampal slices were prepared acutely the same day as the experiment, and each compound was bath applied 30 minutes prior to delivery of the 15 minute hypoxic insult. Recovery of evoked […] expressed as percent of the initial, pre-hypoxia epsp maximum slope, with this percent recovery assessed 60 minutes after reoxygenation.

[5] = tested on: cultured rat retinal ganglion cells; experiment: Glutamate-induced rat retinal ganglion cell death; format: cell-based; conditions: 10 nM for 30 minutes, then 100 μM glutamate; viable cells counted after 3 days; FIG. 1
From the text: Retinal ganglion cells were selected as they represent the retinal cell that degenerates in glaucoma. MK-801 was selected as a reference NMDA antagonist.
Isolation of rat retinal ganglion cells and assessment of viability in the absence and presence of glutamate was described in Pang, et al., “Protection by Eliprodil Against Excitotoxicity in Cultured Rat Retinal Ganglion Cells”, Investigative Ophthalmology & Visual Science, Vol. 40(6), pp. 1170-1176, May, 1999. Briefly, isolated cultured rat retinal ganglion cells were treated with racemic (R/S) eliprodil (10 nM), R-eliprodil (10 nM), or S-eliprodil (10 nM) for thirty (30) minutes followed by the addition of 100 μM glutamate. Survival was determined by counting viable cells after an incubation period of three (3) days. Survival with vehicle alone defines 100%. […] S-eliprodil was ineffective.

[6] = target: NMDA receptor (Homo sapiens, UniProt Q05586+Q13224); experiment: biochemical
Chain of NMDA receptor (Q13224 27-1484, other chains not shown): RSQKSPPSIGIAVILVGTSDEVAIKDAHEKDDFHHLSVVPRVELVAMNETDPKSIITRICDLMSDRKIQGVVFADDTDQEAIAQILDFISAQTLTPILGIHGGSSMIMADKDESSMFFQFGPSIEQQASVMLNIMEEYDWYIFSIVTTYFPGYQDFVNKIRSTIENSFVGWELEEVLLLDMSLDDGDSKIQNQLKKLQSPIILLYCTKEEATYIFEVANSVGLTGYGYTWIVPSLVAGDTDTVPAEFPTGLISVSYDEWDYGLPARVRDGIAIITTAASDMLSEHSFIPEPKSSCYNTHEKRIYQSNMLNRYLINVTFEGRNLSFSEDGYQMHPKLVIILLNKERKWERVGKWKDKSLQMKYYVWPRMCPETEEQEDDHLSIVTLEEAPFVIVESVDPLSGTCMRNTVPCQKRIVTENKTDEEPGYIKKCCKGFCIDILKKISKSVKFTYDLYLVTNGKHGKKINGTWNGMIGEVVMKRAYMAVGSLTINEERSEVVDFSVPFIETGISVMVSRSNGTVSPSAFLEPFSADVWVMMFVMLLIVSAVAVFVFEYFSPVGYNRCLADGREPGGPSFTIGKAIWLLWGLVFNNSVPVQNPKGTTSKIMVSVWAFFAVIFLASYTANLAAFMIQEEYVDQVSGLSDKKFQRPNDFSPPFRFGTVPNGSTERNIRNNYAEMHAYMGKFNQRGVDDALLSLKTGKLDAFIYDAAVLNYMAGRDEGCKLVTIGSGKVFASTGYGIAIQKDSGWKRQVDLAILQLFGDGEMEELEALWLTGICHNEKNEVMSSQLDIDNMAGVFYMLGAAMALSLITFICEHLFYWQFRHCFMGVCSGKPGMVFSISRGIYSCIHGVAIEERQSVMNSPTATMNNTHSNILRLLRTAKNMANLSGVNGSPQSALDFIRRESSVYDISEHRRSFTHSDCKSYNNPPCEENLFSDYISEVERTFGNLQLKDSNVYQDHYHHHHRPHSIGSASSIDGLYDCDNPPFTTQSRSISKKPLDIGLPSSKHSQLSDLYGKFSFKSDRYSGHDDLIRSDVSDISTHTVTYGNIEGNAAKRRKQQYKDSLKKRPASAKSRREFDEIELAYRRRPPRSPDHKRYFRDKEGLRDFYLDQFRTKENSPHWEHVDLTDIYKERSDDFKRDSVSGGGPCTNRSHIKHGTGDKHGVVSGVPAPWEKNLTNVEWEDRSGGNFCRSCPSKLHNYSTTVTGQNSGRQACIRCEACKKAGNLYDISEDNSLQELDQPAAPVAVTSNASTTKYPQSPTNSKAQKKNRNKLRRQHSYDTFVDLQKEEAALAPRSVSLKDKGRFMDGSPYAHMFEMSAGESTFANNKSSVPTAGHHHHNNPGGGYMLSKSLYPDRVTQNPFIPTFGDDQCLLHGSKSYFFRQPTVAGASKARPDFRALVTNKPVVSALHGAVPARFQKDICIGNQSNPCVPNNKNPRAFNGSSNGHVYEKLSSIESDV

[7] = tested on: voltage operated calcium channels of the L, N and P type; experiment: Antagonism at voltage operated calcium channels
From the text: (§1) The role of these pharmacological activities in the neuroprotective efficacy has not been established for this drug.

[8] = tested on: sodium channels; experiment: Antagonism at sodium channels
From the text: as §1

[9] = following some doses in humans; cited from earlier work
[10] = target: T1, 5-HT1A (Homo sapiens, UniProt P08908); experiment: Binding studies; conditions: 5-HT1A binding site
T1 sequence (P08908 1-422): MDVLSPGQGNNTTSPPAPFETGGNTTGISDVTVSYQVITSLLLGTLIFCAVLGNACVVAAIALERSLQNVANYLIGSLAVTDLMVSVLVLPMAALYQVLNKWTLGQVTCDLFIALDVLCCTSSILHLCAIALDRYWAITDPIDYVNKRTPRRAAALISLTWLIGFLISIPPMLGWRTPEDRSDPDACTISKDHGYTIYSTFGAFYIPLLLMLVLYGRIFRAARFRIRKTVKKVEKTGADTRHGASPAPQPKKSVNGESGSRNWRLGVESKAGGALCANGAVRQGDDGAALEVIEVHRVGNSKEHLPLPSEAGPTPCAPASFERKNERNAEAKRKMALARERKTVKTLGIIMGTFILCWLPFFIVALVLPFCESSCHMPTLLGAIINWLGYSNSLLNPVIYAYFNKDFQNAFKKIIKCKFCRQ
From the text: as §1

[11] = target: β3-adrenergic (Homo sapiens, UniProt P13945); experiment: Binding studies; conditions: β3-adrenergic binding site
Chain of β3-adrenergic (P13945 whole entry): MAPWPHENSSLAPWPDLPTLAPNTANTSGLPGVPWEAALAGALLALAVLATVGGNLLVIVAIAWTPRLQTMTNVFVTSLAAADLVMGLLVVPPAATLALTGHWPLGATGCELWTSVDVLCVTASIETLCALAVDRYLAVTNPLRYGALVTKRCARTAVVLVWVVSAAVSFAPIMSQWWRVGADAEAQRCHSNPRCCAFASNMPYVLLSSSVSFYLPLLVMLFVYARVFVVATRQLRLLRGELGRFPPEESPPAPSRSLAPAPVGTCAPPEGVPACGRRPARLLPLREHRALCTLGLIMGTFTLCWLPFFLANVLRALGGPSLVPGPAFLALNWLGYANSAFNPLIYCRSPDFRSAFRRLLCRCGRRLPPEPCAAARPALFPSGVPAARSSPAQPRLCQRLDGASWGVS
From the text: as §1

[12] = target: histamine H1 (Homo sapiens, UniProt P35367); experiment: Binding studies; conditions: histamine H1 binding site
Chain of histamine H1 (P35367 whole entry): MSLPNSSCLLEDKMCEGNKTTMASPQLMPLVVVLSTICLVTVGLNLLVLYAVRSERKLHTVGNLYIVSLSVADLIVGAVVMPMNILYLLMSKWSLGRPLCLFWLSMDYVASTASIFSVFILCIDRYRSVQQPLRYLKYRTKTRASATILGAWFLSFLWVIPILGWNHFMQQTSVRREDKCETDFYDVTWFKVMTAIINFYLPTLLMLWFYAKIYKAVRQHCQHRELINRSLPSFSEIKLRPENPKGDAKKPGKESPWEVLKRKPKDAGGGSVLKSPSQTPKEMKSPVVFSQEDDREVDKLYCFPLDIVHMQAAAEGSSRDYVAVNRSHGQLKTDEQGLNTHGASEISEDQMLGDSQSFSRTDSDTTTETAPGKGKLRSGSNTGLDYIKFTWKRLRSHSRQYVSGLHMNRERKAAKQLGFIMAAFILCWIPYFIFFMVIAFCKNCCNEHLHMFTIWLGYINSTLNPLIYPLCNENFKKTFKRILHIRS
From the text: as §1

[13] = target: 5-HT2A (Homo sapiens, UniProt P28223); experiment: Binding studies; conditions: 5-HT2A binding site
Chain of 5-HT2A (P28223 whole entry, species assumed): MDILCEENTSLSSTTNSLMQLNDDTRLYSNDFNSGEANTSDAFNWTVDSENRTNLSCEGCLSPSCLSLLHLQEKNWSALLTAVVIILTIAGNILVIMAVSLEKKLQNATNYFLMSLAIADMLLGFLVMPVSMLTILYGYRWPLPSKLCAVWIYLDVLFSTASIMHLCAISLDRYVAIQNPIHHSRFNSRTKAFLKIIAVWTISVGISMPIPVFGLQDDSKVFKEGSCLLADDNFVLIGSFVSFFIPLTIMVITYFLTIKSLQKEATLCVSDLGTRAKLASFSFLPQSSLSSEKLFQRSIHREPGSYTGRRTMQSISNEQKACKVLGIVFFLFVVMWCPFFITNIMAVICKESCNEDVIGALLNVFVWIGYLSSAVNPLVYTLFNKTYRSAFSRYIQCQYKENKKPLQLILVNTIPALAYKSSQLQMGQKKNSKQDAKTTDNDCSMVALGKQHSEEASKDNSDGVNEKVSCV
From the text: as §1

[14] = target: 5-HT7 (Homo sapiens, UniProt P34969); experiment: Binding studies; conditions: 5-HT7 binding site
Chain of 5-HT7 (P34969 whole entry, species assumed): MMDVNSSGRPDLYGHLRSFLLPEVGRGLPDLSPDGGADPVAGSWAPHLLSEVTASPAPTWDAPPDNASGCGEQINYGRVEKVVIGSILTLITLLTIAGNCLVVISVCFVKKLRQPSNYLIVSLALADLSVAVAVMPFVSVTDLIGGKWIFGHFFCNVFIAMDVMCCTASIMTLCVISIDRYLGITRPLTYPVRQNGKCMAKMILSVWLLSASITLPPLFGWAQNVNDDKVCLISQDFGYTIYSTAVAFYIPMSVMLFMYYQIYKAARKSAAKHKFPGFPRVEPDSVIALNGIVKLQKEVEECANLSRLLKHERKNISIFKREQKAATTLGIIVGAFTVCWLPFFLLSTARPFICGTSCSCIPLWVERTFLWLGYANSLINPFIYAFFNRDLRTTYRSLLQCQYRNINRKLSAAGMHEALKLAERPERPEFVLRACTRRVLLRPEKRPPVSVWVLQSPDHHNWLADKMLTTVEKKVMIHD
From the text: as §1

[15] = target: histamine H2 (Homo sapiens, UniProt P25021); experiment: Binding studies; conditions: histamine H2 binding site
Chain of histamine H2 (P25021 whole entry): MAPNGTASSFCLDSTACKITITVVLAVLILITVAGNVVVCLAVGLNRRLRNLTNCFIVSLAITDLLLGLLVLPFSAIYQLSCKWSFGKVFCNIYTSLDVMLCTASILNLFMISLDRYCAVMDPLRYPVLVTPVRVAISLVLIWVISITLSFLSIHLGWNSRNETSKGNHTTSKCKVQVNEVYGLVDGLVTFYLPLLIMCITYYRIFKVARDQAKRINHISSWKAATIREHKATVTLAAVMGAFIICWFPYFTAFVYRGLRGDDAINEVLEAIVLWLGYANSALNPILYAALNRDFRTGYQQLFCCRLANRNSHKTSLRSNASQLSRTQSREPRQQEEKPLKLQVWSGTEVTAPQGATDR
From the text: as §1

[16] = tested on: α1-adrenergic; experiment: Binding studies; conditions: α1-adrenergic binding site
From the text: as §1

[17] = target: 5-HT uptake (Homo sapiens, UniProt P31645); experiment: Binding studies; conditions: 5-HT uptake binding site
Chain of 5-HT uptake (P31645 whole entry): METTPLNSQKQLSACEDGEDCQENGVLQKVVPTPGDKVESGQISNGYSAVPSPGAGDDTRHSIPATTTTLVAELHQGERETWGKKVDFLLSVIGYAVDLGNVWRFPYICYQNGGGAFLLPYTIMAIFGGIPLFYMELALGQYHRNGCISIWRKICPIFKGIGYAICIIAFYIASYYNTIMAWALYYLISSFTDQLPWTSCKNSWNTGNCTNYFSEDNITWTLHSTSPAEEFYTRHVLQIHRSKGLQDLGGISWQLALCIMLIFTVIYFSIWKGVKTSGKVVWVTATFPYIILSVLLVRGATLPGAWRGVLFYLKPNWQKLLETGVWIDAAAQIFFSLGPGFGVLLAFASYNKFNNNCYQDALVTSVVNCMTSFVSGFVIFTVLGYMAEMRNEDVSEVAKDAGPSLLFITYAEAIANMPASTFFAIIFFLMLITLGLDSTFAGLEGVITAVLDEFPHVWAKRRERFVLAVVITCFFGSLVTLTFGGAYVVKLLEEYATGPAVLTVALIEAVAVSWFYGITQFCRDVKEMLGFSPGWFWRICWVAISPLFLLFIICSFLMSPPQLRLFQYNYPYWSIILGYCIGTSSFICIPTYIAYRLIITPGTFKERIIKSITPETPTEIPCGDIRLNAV
From the text: as §1

Structure (SMILES)	Threshold Dose, Heart Rate Decrease [1] [mg/kg]	Threshold Dose, Mean Blood Pressure Decrease [1] [mg/kg]	Threshold Dose, QTc Prolongation [1] [mg/kg]	Inhibition of NMDA-induced firing rate of the lateral vestibular nucleus [2]	Maximum effect on APD90 [3]	Concentration with statistically significant prolongation of APD90 [3] [nM]	Recovery of excitatory post synaptic potentials following hypoxia (efficacy) [4]	Neuroprotective effect on glutamate-induced retinal ganglion cell death (survival) [5]	Ki [6] [µM]	further results
O[C@@H](CN1CCC(Cc2ccc(F)cc2)CC1)c1ccc(Cl)cc1 [R-eliprodil, R-α-(4-chlorophenyl)-4-(4-fluorophenylmethyl)-1-peperidineethanol]	0.3	1.0	0.1	strongly inhibit	less than is that seen with S(+) eliprodil	≥ 100	substantial recovery; also recorded: more efficacious than either racemic or S-eliprodil	marked neuroprotective activity; also recorded: as efficacious as a protectant as racemic eliprodil	0.2	Plasma level ([1]; iv, 0.1 mg/kg): 34.9 ± 2.8 ng/mL; Potency (EC50) for recovery of synaptic transmission, compared with racemic-eliprodil or memantine ([4]; p<0.05, Student's t-test, FIG. 2): statistically significantly more potent
O[C@H](CN1CCC(Cc2ccc(F)cc2)CC1)c1ccc(Cl)cc1 [S-eliprodil]	0.1	1.0	0.01	almost inactive at the highest dose tested	–	≥ 30	less effective	ineffective	10	–
OC(CN1CCC(Cc2ccc(F)cc2)CC1)c1ccc(Cl)cc1 (racemic) [Eliprodil]	0.1	1.0	0.03	strongly inhibit	equal to that of S(+) eliprodil	–	less effective	marked neuroprotective activity	–	Antagonism at voltage operated calcium channels [7]: shows antagonism; Antagonism at sodium channels [8]: shows antagonism; QTc prolongation [9]: asymptomatic QTc prolongation; Affinity [10]: sub-micromolar; Affinity [11]: sub-micromolar; Affinity [12]: sub-micromolar; Affinity [13]: sub-micromolar; Affinity [14]: sub-micromolar; Affinity [15]: sub-micromolar; Affinity [16]: sub-micromolar; Affinity [17]: sub-micromolar; Effect on APD90 at low concentrations [3]: intermediate between the two enantiomers
